“Also recorded” adds a separate entry of the source.
Experiments:
E. coli CFT073 = experiment: Antimicrobial activity assay in the presence of lipocalin 2; assay type: cell-based, Escherichia coli; conditions: conjugate 100 nM, lcn2 1 μM, M9 minimal media, 37° C., 24 h
Method: The bacterial cultures were grown in modified M9 minimal medium (Blango, M. G.; Ott, E. M.; Erman, A.; Veranic, P.; Mulvey, M. A. Forced Resurgence and Targeting of Intracellular Uropathogenic Escherichia coli Reservoirs. PLoS One 2014, 9, e93327-e93335) (Na2HPO4 6.8 g/L, KH2PO4 3 g/L, NaCl 0.5 g/L, NH4Cl 1 g/L, 0.4% glucose, 2 mM MgSO4, 0.1 mM CaCl2, 0.2% casein amino acids, and 16.5 μg/mL of thiamine) overnight. […] The cultures were serially diluted to an OD600 value of 0.00001 in fresh modified M9 minimal medium. Lipocalin 2 (Lcn2) was diluted into PBS buffer to a concentration of 20 μM upon arrival and frozen at −20° C. until use. Bovine serum albumin (BSA, Sigma-Aldrich) was prepared in PBS buffer to achieve a concentration of 20 μM. […] The bacterial growth was determined by measuring OD600 using the plate reader. […] The resulting mean OD600 was reported, and the error bars were the standard deviation. […] In contrast, Lcn2 had no effect of the antibacterial activity of MGE-Amp, MGE-Amx, DGE-Amp, or DGE-Amx.

[1] = test system: Salmonella enterica serovar Typhimurium (STM) IR715; experiment: Antibacterial activity assay, Salmonella Typhimurium; assay type: cell-based; conditions: 50% MHB, 100 μM 2,2′-dipyridyl, 30° C., t=19 h
Method: FIGS. 12A and 12B show exemplary antibacterial activities of Ent-Amp, Ent-Amx, MGE-Amp, MGE-Amx, DGE-Amp, and DGE-Amx against Salmonella enterica serovar Typhimurium (STM) IR715 (50% MHB with 100 μM 2,2′-dipyridyl to provide conditions of iron limitation, 30° C., t=19 h). (FIG. 12A) Antibacterial activity of Amp and the Amp-containing conjugates (Ent-Amp, MGE-Amp, and DGE-Amp). […] (FIG. 12B) Antibacterial activity of Amx and the Amx-containing conjugates (Ent-Amx, MGE-Amx, and DGE-Amx).

[2] = test system: E. coli CFT073 in the presence of S. aureus 25923; experiment: Co-culture of E. coli CFT073 and S. aureus 25923; assay type: cell-based, Escherichia coli; conditions: co-culture in a 1:1 ratio
Description: (FIG. 20A) Images showing three cultures untreated with any antibiotics: E. coli CFT073, S. aureus 25923, and E. coli CFT073 and S. aureus 25923 co-culture (in a 1:1 ratio). (FIG. 20B) Images showing co-cultures of E. coli CFT073 and S. aureus 25923 (in a 1:1 ratio), in the absence of any antibiotics or in the presence of Amp, Amx, Ent-Amp, or Ent-Amx.

[3] = test system: mixed culture of E. coli K-12 and E. coli CFT073; conditions: iron-deficient conditions (200 μM DP), 50% MHB, 30° C., t=19 h
Method: (§1) No antibiotic marker was included in these cultures.
2,2′-dipyridyl (DP, 200 μM) was added to provide conditions of iron limitation.

E. coli H9049 = experiment: Antimicrobial activity assay, E. coli H9049; assay type: cell-based, Escherichia coli; conditions: 50% MHB, 30° C., t=19 h
Method: (§2) Overnight cultures of the bacterial strains were prepared by inoculating 5 mL of LB with the bacterial freezer stocks and the cultures were incubated at 37° C. in a tabletop incubator shaker set at 150 rpm. The overnight culture grew to saturation and was diluted 1:100 into 5 mL of fresh LB medium containing DP (200 μM) and incubated at 37° C. with shaking at 150 rpm until OD600 reached 0.6. The cultures were subsequently diluted to an OD600 value of 0.001 in 50% MHB medium (11.5 g/L) with or without DP (200 μM). No antibiotic marker was included in these cultures. A 90-μL aliquot of the diluted culture was combined with a 10-μL aliquot of a 10× solution of the tested compounds in a 96-well plate, which was wrapped in […] and incubated at 30° C. with shaking at 150 rpm for 19 h. Bacterial growth was determined by measuring OD600 using a BIOTEK SYNERGY HT plate reader. Each well condition was prepared in duplicate, and at least three independent replicates were conducted on different days. The resulting mean OD600 are reported and the error bars are the standard deviation.
In another exemplary experiment, antibacterial activities of the conjugates were tested against E. coli H9049 in 50% MHB at 30° C., t=19 h. DP (200 μM) was added to provide conditions of iron limitation.

various E. coli strains = experiment: Antibacterial activity against a panel of E. coli strains; assay type: cell-based, Escherichia coli; conditions: 6 strains of E. coli (K-12, B, H9049, 25922, UTI89, CFT073)
Method: as §2
Ampicillin and amoxicillin are β-lactam antibiotics that have periplasmic targets in Gram-negative bacteria and inhibit cell wall biosynthesis. The antibacterial activity of Ent-ampicillin and Ent-amoxicillin conjugates 44 and 45 was evaluated in vitro against a panel of Gram-negative and positive-bacteria.
Select Ent-β-lactam conjugates (Ent-Amp and Ent-Amx) and their glucosylated derivatives (MGE-Amp, MGE-Amx, DGE-Amp, and DGE-Amx) were tested against 6 strains of E. coli. Four of them are non-pathogenic strains, namely K-12, B, H9049, and 25922, and the other two are uropathogenic clinical isolates, namely UTI89 and CFT073.

E. coli 25922 = experiment: Antimicrobial activity assay, E. coli 25922; assay type: cell-based, Escherichia coli; conditions: 50% MHB, 200 μM DP (iron-deficient), 30° C., t=19 h
Method: No antibiotic marker was included in these cultures. […] Bacterial growth was determined by measuring OD600 using a BIOTEK SYNERGY HT plate reader. Each well condition was prepared in duplicate, and at least three independent replicates were conducted on different days. The resulting mean OD600 are reported and the error bars are the standard deviation.
In another exemplary experiment, antibacterial activities of the conjugates were tested against E. coli 25922 in 50% MHB at 30° C., t=19 h. […] Under iron-deficient conditions, Ent-Amp and MGE-Amp provided a complete growth inhibition at 100 nM whereas 1 μM of DGE-Amp was required to provide a complete growth inhibition.

[4] = test system: uropathogenic E. coli and non-pathogenic E. coli; experiment: Mixed culture assays (summary), uropathogenic and non-pathogenic E. coli; assay type: cell-based, Escherichia coli; conditions: uropathogenic with non-pathogenic E. coli
Description: as §1

Q: `CC1(C)SC2C(NC(=O)C(NC(=O)CCCc3cn(CCOCCOCCOCCNC(=O)c4cc(O)c(O)c(C(=O)NC5COC(=O)C(NC(=O)c6cccc(O)c6O)COC(=O)C(NC(=O)c6cccc(O)c6O)COC5=O)c4)nn3)c3ccc(O)cc3)C(=O)N2C1C(=O)O` (stereo not drawn) [Ent-Amx] was tested. Which “effect of lipocalin-2 (lcn2) on antibacterial activity” value (E. coli CFT073) did it give?
A: attenuated in the presence of Lcn2

Q: And the “antibacterial activity relative to the unmodified antibiotic” value [1]?
A: enhanced antibacterial activity relative to unmodified Amx

Q: What about the “killing of E. coli CFT073 co-cultured with S. aureus 25923” value [2] of the same molecule?
A: killed E. coli CFT073

Q: How did the “growth inhibition in mixed culture at 100 nM” value [3] turn out when `CC1(C)SC2C(NC(=O)C(NC(=O)CCCc3cn(CCOCCOCCOCCNC(=O)c4cc(O)c(O)c(C(=O)NC5COC(=O)C(NC(=O)c6cc(C7OC(CO)C(O)C(O)C7O)cc(O)c6O)COC(=O)C(NC(=O)c6cccc(O)c6O)COC5=O)c4)nn3)c3ccccc3)C(=O)N2C1C(=O)O` (stereo not shown) [MGE-Amp] was run?
A: only inhibited the growth of E. coli CFT073

Q: And the “effect of lipocalin-2 (lcn2) on antibacterial activity” value (E. coli CFT073)?
A: no effect; also recorded: unaffected; also recorded: not attenuated

Q: What about the “antibacterial activity at 100 nM” value (E. coli H9049; 200 μM DP) of the same molecule?
A: inactive

Q: What about the “antibacterial activity, comparison” value (E. coli H9049; 200 μM DP) of the same molecule?
A: more active against the bacteria than DGE-Amp

Q: What about the “antibacterial activity against uropathogenic compared to non-pathogenic E. coli” value (various E. coli strains) of the same molecule?
A: greater antibacterial activity against the uropathogenic E. coli compared to non-pathogenic E. coli

Q: What about the “concentration providing complete growth inhibition” value (E. coli 25922) of the same molecule?
A: 100 nM

Q: And the “antibacterial activity relative to the unmodified antibiotic” value [1]?
A: enhanced antibacterial activity relative to unmodified Amp

Q: What about the “strain-specific growth inhibition in the mixed culture assays” value [4] of the same molecule?
A: specifically inhibited the growth of the uropathogenic E. coli

Q: Which results are given for `CC1(C)SC2C(NC(=O)C(NC(=O)CCCc3cn(CCOCCOCCOCCNC(=O)c4cc(O)c(O)c(C(=O)NC5COC(=O)C(NC(=O)c6cc(C7OC(CO)C(O)C(O)C7O)cc(O)c6O)COC(=O)C(NC(=O)c6cc(C7OC(CO)C(O)C(O)C7O)cc(O)c6O)COC5=O)c4)nn3)c3ccccc3)C(=O)N2C1C(=O)O` (stereo not shown) [DGE-Amp]?
A: growth inhibition in mixed culture at 100 nM [3]: only inhibited the growth of E. coli CFT073; effect of lipocalin-2 (lcn2) on antibacterial activity (E. coli CFT073): no effect; also recorded: unaffected; also recorded: not attenuated; antibacterial activity at 100 nM (E. coli H9049; 200 μM DP): inactive; concentration at which growth inhibition was observed (attributed to iron deprivation) (E. coli H9049; 200 μM DP): 10 µM; antibacterial activity against uropathogenic compared to non-pathogenic E. coli (various E. coli strains): greater antibacterial activity against the uropathogenic E. coli compared to non-pathogenic E. coli; concentration required to provide complete growth inhibition (E. coli 25922): 1 µM; antibacterial activity relative to the unmodified antibiotic [1]: enhanced antibacterial activity relative to unmodified Amp; strain-specific growth inhibition in the mixed culture assays [4]: specifically inhibited the growth of the uropathogenic E. coli

Q: What does the source list for `CC1(C)SC2C(NC(=O)C(NC(=O)CCCc3cn(CCOCCOCCOCCNC(=O)c4cc(O)c(O)c(C(=O)NC5COC(=O)C(NC(=O)c6cccc(O)c6O)COC(=O)C(NC(=O)c6cccc(O)c6O)COC5=O)c4)nn3)c3ccccc3)C(=O)N2C1C(=O)O` (stereo not drawn) [Ent-Amp]?
A: concentration providing complete growth inhibition for both strains [3]: 100 nM; effect of lipocalin-2 (lcn2) on antibacterial activity (E. coli CFT073): attenuated in the presence of Lcn2; concentration providing complete growth inhibition (E. coli H9049; 200 μM DP (iron-deficient)): 100 nM; concentration providing complete growth inhibition (E. coli 25922): 100 nM; antibacterial activity relative to the unmodified antibiotic [1]: enhanced antibacterial activity relative to unmodified Amp; killing of E. coli CFT073 co-cultured with S. aureus 25923 [2]: killed E. coli CFT073

Reference: patent US9902986B2, “Enterobactin conjugates and uses thereof” (Massachusetts Institute of Technology, priority 2013, dated 2018)
